According to patent US20210078917A1, “FUNGICIDAL FERTILIZER COMPOSITION COMPRISING POTASSIUM PHOSPHITE AND GAMMA-POLY-GLUTAMIC ACID” (JIANGSU HUIFENG BIO AGRICULTURE CO., LTD., priority 2018, published 2021):

Tests used:
Disease (black fruit) = experiment: Disease control test of Chinese wolfberry, black fruit; assay type: in vivo, Chinese wolfberry "Ningqi No. 7"; details: 1.2 kg active ingredient per mu
Experimental: The test was carried out in a Chinese wolfberry planting test plot in Koluke Town, Delingha City, Qinghai Province. Chinese wolfberry plants were all three-year-old seedlings of variety “Ningqi No. 7” at a density of 270 plants/667 m^2. This experiment was designed such that different plots were arranged in order. […] Fertilization method: It was applied together with other base fertilizers, by laying the fertilizer at the bottom of the planting pit, where the depth of the trench was 70 cm, the diameter of the pit was 80 cm, and the soil was mixed in and applied at the bottom when applying fertilizer. The yield, quality and control effect on disease on fresh Chinese wolfberry fruit were determined.

potatoes = experiment: Yield increase test of potatoes (field); assay type: in vivo, potato; details: amount 7000 g active ingredient/mu, base fertilizer
Experimental: (§1) (1) Yield increase and disease control test of potatoes with fungicidal fertilizer composition of the present invention. This test was conducted in 2017 in Anding District, Dingxi City, Gansu Province. This area is a typical semi-arid rain-fed agricultural area. The soil type is loessial soil, with deep soil layers and uniform soil fertility. The previous crop is rape. The fertilizer of the present invention was totally applied as a base fertilizer at a time. […] Ridging after flat planting in wide and narrow rows was adopted. The wide row spacing was 60 cm, the narrow row spacing was 30 cm, the plant spacing was 30 cm, the sowing depth was 15 cm, and the plant density was 58,000 plants·hm^−2. Other field management was the same as that in large area of field. The number of large- and medium-sized potatoes ([…]) per plant was randomly determined, and the relative increase rate of large- and medium-sized potatoes was determined. The yield per mu and the relative increase rate of yield were determined. The crude starch content and increase rate of crude starch content were determined. The control effect on root rot of potatoes was also determined.

peanut = experiment: Yield increase and quality test of peanut; assay type: in vivo; details: 800 g per mu, sprayed three times during flowering and fruiting period
Experimental: (§2) […]. Fertilization method: The fertilizer was applied three times by spraying during the flowering and fruiting period. The yield, quality and control effect on disease on peanut were determined.

[1] = test system: root rot, a soil-borne disease of soybeans; experiment: Disease control test of soybean, root rot; assay type: in vivo; details: 4000 g effective ingredient per mu
Experimental: (§3) Fertilization method: The fertilizer was co-applied with other fertilizers. The yield, quality and control effect on disease on soybean were determined.

pepper = experiment: Yield increase and quality test of pepper; assay type: in vivo; details: 400 g per mu, sprayed during the seedling stage
Experimental: (§4) This fertilizer was applied on the basis of conventional fertilization in each treatment area. Fertilization method: The fertilizer was applied by spraying during the seedling stage of pepper. The yield, quality and control effect on disease on pepper were determined.

tomato = experiment: Yield increase and quality test of tomato; assay type: in vivo; details: 600 g per mu, sprayed during the seedling stage
Experimental: […]. This fertilizer was applied on the basis of conventional fertilization in each treatment area. Fertilization method: The fertilizer was applied by spraying during the seedling stage of tomato. The yield, quality and control effect on disease on tomato were determined.

Chinese wolfberry = experiment: Yield increase and quality test of Chinese wolfberry; assay type: in vivo, Chinese wolfberry "Ningqi No. 7"; details: 1.2 kg active ingredient per mu
Experimental: The test was carried out in a Chinese wolfberry planting test plot in Koluke Town, Delingha City, Qinghai Province. Chinese wolfberry plants were all three-year-old seedlings of variety “Ningqi No. 7” at a density of 270 plants/667 m^2. This experiment was designed such that different plots were arranged in order. […]. Fertilization method: It was applied together with other base fertilizers, by laying the fertilizer at the bottom of the planting pit, where the depth of the trench was 70 cm, the diameter of the pit was 80 cm, and the soil was mixed in and applied at the bottom when applying fertilizer. The yield, quality and control effect on disease on fresh Chinese wolfberry fruit were determined.

soybean = experiment: Yield increase test of soybean; assay type: in vivo; details: 4000 g effective ingredient per mu
Experimental: as §3

stem rot of peanut = experiment: Disease control test of peanut, stem rot; assay type: in vivo; details: 800 g per mu
Experimental: as §2

Disease (rot) = experiment: Disease control test of tomato, rot; assay type: in vivo; details: 600 g per mu
Experimental: This fertilizer was applied on the basis of conventional fertilization in each treatment area. Fertilization method: The fertilizer was applied by spraying during the seedling stage of tomato. The yield, quality and control effect on disease on tomato were determined.

root rot of potatoes = experiment: Disease control test of potatoes (field), root rot; assay type: in vivo, potato; details: amount 7000 g active ingredient/mu
Experimental: as §1

Disease (blight) = experiment: Disease control test of pepper, blight; assay type: in vivo; details: 400 g per mu
Experimental: as §4

## Potassium phosphite
Disease (black fruit); 10 days after application
  Disease (black fruit): Control effect: 66.51%
  Disease (black fruit): Disease index: 5.13
Disease (black fruit); 30 days after application
  Disease (black fruit): Control effect: 45.24%
  Disease (black fruit): Disease index: 15.67
potatoes
  Crude starch content: 16.8%
  Fresh weight of large- and medium-sized potatoes: 518.8 g/plant
  Increase rate of crude starch content: 6.3%
  Increase rate of large- and medium-sized potatoes: 14.8%
  Increase rate of yield: 12.4%
  Yield: 1446 kg/mu
peanut
  Quality: Linoleic acid: 44.61%
  Quality: Protein: 23.08%
  Yield: 335.7 kg/mu
  Yield: Seed yield: 70.3%
  Yield: Weight per 100 fruits: 122.3 g
[1]; 12 days after application
  Control effect: 75.42%
  Disease index of root rot: 4.73
[1]; 35 days after application
  Control effect: 36.78%
  Disease index of root rot: 19.93
pepper
  Quality: Vitamin C: 24.4 mg/100 g
  Yield: Total yield: 3462 kg/mu
  Yield: Weight of single fruit: 51.8 g
tomato
  Quality: Amino acid: 695.31 mg/100 kg
  Quality: Vitamin C: 15.69 mg/100 g
  Yield: Total yield: 3626 kg/mu
  Yield: Weight of single fruit: 22.6 g
Chinese wolfberry
  Quality: Polysaccharide: 8.63%
  Quality: Total amino acid content: 7.41%
  Yield of fresh Chinese wolfberry fruit: Weight per 100 fruits: 126.8 g
  Yield of fresh Chinese wolfberry fruit: Yield: 2703.5 kg/mu
soybean
  Branches: 18.5 count
  Increase rate (branches): 6.8%
  Increase rate (weight per 100 grains): 7.1%
  Increase rate (yield): 11.4%
  Weight per 100 grains: 26.50 g
soybean; per 667 M^2
  Yield (667 M^2): 196.7
Stem rot of peanut; 10 days after application
  Disease (Stem rot): Control effect: 78.64%
  Disease (Stem rot): Disease index: 3.28
Stem rot of peanut; 30 days after application
  Disease (Stem rot): Control effect: 39.36%
  Disease (Stem rot): Disease index: 9.31
Disease (rot); 12 days after application
  Disease (rot): Control effect: 62.42%
  Disease (rot): Disease index: 5.95
Disease (rot); 45 days after application
  Disease (rot): Control effect: 34.52%
  Disease (rot): Disease index: 16.16
Root rot of potatoes; 10 days after application
  Control effect: 57.59%
  Disease index of root rot: 11.56
Root rot of potatoes; 30 days after application
  Control effect: 32.47%
  Disease index of root rot: 26.19
Disease (blight); 10 days after application
  Disease (blight): Control effect: 71.36%
  Disease (blight): Disease index: 3.00
Disease (blight); 42 days after application
  Disease (blight): Control effect: 31.52%
  Disease (blight): Disease index: 12.43
